Earlier results on seven substances are cited in US7638299B2, “Biosynthetic polypeptides utilizing non-naturally encoded amino acids” (Ambrx, Inc., priority 2004, dated 2009).

Read-outs that look alike come from different tables or passages of the source. No end group written: not given here.

For data set [1] the following is noted: administered subcutaneously.
For data set [2] the following is noted: stored at 4° C. (Mojsov).
For data set [3] the following is noted: U.S. Pat. No. 5,118,666.
For data set [4] the following is noted: Kreymann et al., 1987.
The conditions of data set [5]: humans.
The subject of the next data set is NIDDM patients. Particulars: 4 ng/kg/min intravenously, continuously for one week.
For data set [6] the following is noted: in vitro studies and in animals.
The next data set has as its target T1, GLP-1 receptor (Rattus norvegicus, UniProt P32301).
T1 construct: host or cells: live rats (endogenous receptor)
T1 sequence (P32301 22-463): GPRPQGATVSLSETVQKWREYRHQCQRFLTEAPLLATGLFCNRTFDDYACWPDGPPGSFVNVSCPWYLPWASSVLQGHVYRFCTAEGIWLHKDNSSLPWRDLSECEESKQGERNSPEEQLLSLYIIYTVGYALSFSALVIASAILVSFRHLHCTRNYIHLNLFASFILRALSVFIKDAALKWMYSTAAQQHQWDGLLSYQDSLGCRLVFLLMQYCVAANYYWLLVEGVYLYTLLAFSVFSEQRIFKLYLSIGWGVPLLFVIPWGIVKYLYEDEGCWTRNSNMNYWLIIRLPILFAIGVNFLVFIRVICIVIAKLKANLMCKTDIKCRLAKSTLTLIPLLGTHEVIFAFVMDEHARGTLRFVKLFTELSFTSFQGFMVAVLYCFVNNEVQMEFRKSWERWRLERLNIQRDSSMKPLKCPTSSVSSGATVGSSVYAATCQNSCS
Particulars: rats.

The mark [7] stands for this setting: intraventricular administration.

Regarding “GLP-1(7-36) amide: SEQ ID NO: 1; His-Ala-Glu-Gly-...-Lys-Gly-Arg-X wherein X is NH2 (HAEGTFTSDVSSYLEGQAAKEFIAWLVKGR-NH2; listed as Homo sapiens)”, the time action entry in data set [1] is on record as “about 50 minutes”.

Take “GLP-1(7-37): SEQ ID NO: 2; His-Ala-Glu-Gly-...-Lys-Gly-Arg-X wherein X is Gly”: in data set [2], the “appearance of by-products on storage” value is “have been found as early as eleven months after sample preparation”. Further, in [3], the biological half-life was 3 to 5 minutes and the serum half-life was 3 to 5 min.

With “GLP-1: product of the proglucagon gene, gut incretin hormone”, the “half-life of circulating GLP-1” value in [4] is listed as “about 4 minutes”. Also, the plasma half-life in data set [5] is 2 min. Further, in the data set with NIDDM patients, the glycaemic control entry was “dramatically improve glycaemic control” and the side effects result is “without significant side effects”. Further, the food intake result in the data set with food intake in rats (acute, peripheral administration) is “does not inhibit food intake acutely”. The food intake entry with food intake in rats (setting [7]) is given as “profoundly inhibits food intake”.

As to “N-terminally extended GLP-1 (PG 72-107)amide: N-terminally extended GLP-1, proglucagon 72-107 amide (QDFVQWLMNTKRNRNNIAKRHDEFERHAEGTFTSDV-NH2; UniProt P01275 72-107, looked up, fragment)”, the food intake entry in the data set on food intake in rats (setting [7]) was “inactive”.

Consider “PYY: thirty six amino acid long peptide secreted by endocrine cells of the distal gastrointestinal tract”, for which the “appetite and food intake” value in the data set with lean and obese subjects (administered intravenously, lean and obese subjects) is “suppresses appetite and food intake”. In the data set on lean and obese subjects (oral, low absorption and rapid degradation in the gastrointestinal tract), the oral activity result is given as “negligible”.

As to enfuvirtide, the “inhibition of HIV-1 mediated CD-4+ cell-cell fusion (syncytial formation) and infection of CD-4+ cells by cell-free virus” value with HIV-1 is given as “potent inhibitor”. In data set [6], the toxicity entry is listed as “non-toxic”.

In the case of exendin 9-39, the “incretin effect elicited by oral glucose” value at GLP-1 receptor is reported as “dramatically reduces the incretin effect”. Besides, the “antagonism of the GLP-1 effect on food intake” value with food intake in rats (appropriate doses of the GLP-1 antagonist) is “abolish the effects of GLP-1”.
